Laboratory results as given in patent publication US20250346588A1, “IMIDAZOPYRIDINE AND OXAZOLOPYRIDINE DERIVATIVES AND ANALOGS THEREOF, METHODS OF PREPARATION THEREOF, METHODS OF HIF-1/2A PATHWAY INHIBITION, AND INDUCTION OF FERROPTOSIS” (KUDA THERAPEUTICS, INC., priority 2022, published 2025).

What was measured:
[1] = test system: HIF-1α and HIF-2α; assay: Western blots for HIF-1α and HIF-2α in ccRCC cells; type: cell-based, human; settings: 786-0 or RCC10 ccRCC cells, 24h, relative to GAPDH
Description: (§1) Western blots were performed to determine the effects of the compounds on levels of HIF-2α and other relevant proteins, whereas qPCR was performed to determine the effects of compounds on transcript levels of HIF target genes. 786-0 or RCC10 cells were plated at 1×10E5 cells/well in 2 ml DMEM with 10% FBS/well in 6-well tissue culture plates. Cells were allowed to adhere overnight in a humidified incubator at 37° C. with 5% CO2, after which the appropriate concentrations of compounds in DMSO were added. DMSO concentrations were kept constant in all wells. After 24 h exposure to the compounds, cells were lysed and subjected to western blotting according to standard protocols. Antibodies for HIF-1α and HIF-2α and GAPDH were purchased from Cell Signaling Technology (Danvers, MA), whereas antibodies to IRP2 and pVHL were from Santa Cruz Biotechnology (Dallas, TX), and GPX4 antibody was from R&D Systems, Inc (Minneapolis, MN). Representative data in FIG. 2 show a dose-dependent effect of compounds in decreasing HIF-1/2α. Compounds also impact cellular iron sensing given by increased IRP2, which taken together indicate that cells sense decreased amounts of available iron, which triggers the iron starvation response initiated by IRP2 stabilization. Representative data shown in FIG. 3D show a dose dependent effect of the compounds on GPX4, which may indicate decreased resistance to ferroptosis. […] The data also show increased expression of ISCA2 with pVHL re-expression.

[2] = test system: IRP2 and GPX4; assay: Western blots for cellular iron-sensing machinery (IRP2, GPX4); type: cell-based, human
Description: as §1

[3] = test system: RCC10 or 786-0 cells with stable overexpression of empty vector or ISCA2; assay: Cell viability with ISCA2 overexpression; type: cell-based, human; settings: 24h
[4] = test system: 786-0 ccRCC cells; assay: ICP-MS of cellular iron, zinc and copper; type: cell-based, human; settings: 786-0 cells, 2.5 μM compound
Description: These studies were performed to determine the content of iron and other transition metals in cells after exposure the compounds described herein. 786-0 cells were seeded at 1.5 million cells/flask in T75 cm^2 flasks in DMEM+10% FBS, and allowed to adhere overnight. Cells were then treated with indicated concentrations of compounds in DMSO or DMSO alone (vehicle) for a further 24 h, after which cells were detached by trypsinization, counted, washed twice in phosphate-buffered saline (PBS) and pelleted. Experiments were performed using three replicate T75 cm^2 flasks per condition. A 5:1 mixture of nitric acid (OPTIMA Grade, 70%, Fisher Scientific) and ultrapure hydrogen peroxide (ULTREX II, 30%, Fisher Scientific) was added to cell pellets. This mixture was allowed to digest overnight, heated until dry, and resuspended in 2% nitric acid for analysis using an Agilent 7900 ICP-MS (Agilent Technologies, Santa Clara, CA). Calibration standard solutions for determination of Fe were prepared from Agilent multi-element calibration standard-2A. An Agilent Environmental Calibration Standard was used as an independent control. PBS-only control digestions were used to measure background. Metal readings were normalized to cell number. Data obtained from these studies for three replicate readings (with SEM) are shown in FIG. 3, which show an increase in cellular iron (Fe) content after treatment with indicated compounds.

[5] = test system: HIF-2α Iron-Responsive Element (IRE); assay: HIF-2α IRE-Luc reporter assay; type: cell-based, human; settings: 786-0 cells stably expressing HIF-2α IRE-Luc, 24h
Description: Screens for inhibitory activity of compounds described herein were performed using 786-0 ccRCC cells that stably express HRE-Luc: 5 copies of the hypoxia-responsive element (HRE) fused to the pGL3 luciferase reporter (Promega Corp, Madison WI). 786-0 cells are pVHL deficient and thus constitutively express HIF-2α independently of cellular oxygen tension. Since 786-0 cells lack HIF-1α, HRE-driven luciferase activity is primarily HIF-2α driven, and has been previously validated. Cells were maintained at log phase growth in […] (DMEM) with 10% FBS in a humidified incubator at 37° C. with 5% CO2. For screening assays, cells were seeded at a density of 4,000 cells in 50 μl of complete media/well in quadruplicate wells/point in a 96-well plate. After 24 h, 50 μl of a 2× concentration of test compound was added to each well. […] After 24 h treatment, luciferase activity was measured using the Steady-Glo Luciferase assay system (Promega Corp) according to the manufacturer's protocol. Cell viability was measured in quadruplicate parallel wells using resazurin as recommended by the manufacturer (R&D systems, Minneapolis, MN). […] Representative data determined using Steady-Glo luciferase and resazurin are shown in FIGS. 1A and 1B respectively, with error bars showing SD. […]

[6] = Bioavailability studies; type: in vivo; settings: mouse, in vivo, Swiss albino mice

bioavailability ([6]; oral, read-out: Bioavailability F): 27.3% | half-life ([6]; read-out: half-life (converted)): 3.61 h
SMILES: COc1ccc(-c2nnc(Nc3nc4c(OC)nccc4[nH]3)o2)cc1OC [Compound 26HCL, N-(4-Methoxy-1H-imidazo[4,5-c]pyridin-2-yl)-5-(3,4-dimethoxyphenyl)-1,3,4-oxadiazol-2-amine]
effect on HIF-1α and HIF-2α protein (Western blot) [1]: decreases HIF-1α and HIF-2α | effect on IRP2 protein (Western blot) ([2]; 786-0 or RCC10 ccRCC cells, 24h, relative to GAPDH): increases IRP2 | effect on IRP2 and GPX4 protein (Western blot) ([2]; higher concentrations of compound, FIG. 3D): decrease in IRP2 and GPX4 | effect of ISCA2 overexpression on cell viability response to compound [3]: ISCA2 overexpression promotes resistance | cellular iron (Fe), zinc (Zn) and copper (Cu) content [4]: increases the content of iron, zinc and copper in cells | effect on IRE-luciferase reporter activity normalized to resazurin [5]: decrease IRE-mediated translation of HIF-2α
